Values quoted from earlier work, collected in US20200268817A1, “CANNABINOID COMPOSITIONS, METHODS OF MANUFACTURE AND USE THEREOF” (priority 2016, published 2020).
Where two headings read alike, the source gives them in different places.

How the values were obtained:
patients [1] = settings: Phase III study (31)
advanced cancer patients = settings: patients receiving chemotherapy; compared to placebo
[2] = system: advanced cancer patients with substantial appetite loss; settings: 469 advanced cancer patients; p=0.0001
patients [3] = settings: low cannabinoid dosages; vs placebo
[4] = system: peripheral blood mononuclear cells; settings: added to peripheral blood mononuclear cells in vitro
[5] = system: patients with acute paranoid schizophrenia; settings: for psychotic symptoms (Brief Psychiatric Rating Scale, Positive and Negative Syndrome Scale): after 2 and 4 weeks, 42 patients
prostaglandin E2 = settings: more potent than aspirin
CB2 = CB2 (Homo sapiens, UniProt P34972)
CB2, sequence (P34972 whole entry, species assumed): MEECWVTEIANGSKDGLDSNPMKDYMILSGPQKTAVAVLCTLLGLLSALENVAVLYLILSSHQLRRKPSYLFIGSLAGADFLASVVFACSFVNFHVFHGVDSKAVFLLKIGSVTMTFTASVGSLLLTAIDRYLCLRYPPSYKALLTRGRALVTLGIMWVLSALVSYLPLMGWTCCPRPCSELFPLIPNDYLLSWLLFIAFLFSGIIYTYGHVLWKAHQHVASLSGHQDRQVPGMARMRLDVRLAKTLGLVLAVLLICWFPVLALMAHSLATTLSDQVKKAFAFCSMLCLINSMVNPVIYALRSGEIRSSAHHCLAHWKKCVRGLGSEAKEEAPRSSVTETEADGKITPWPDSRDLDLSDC

[6] = system: synovial cells isolated from mice
schizophrenic patients = settings: over six weeks

CCCCCc1cc(O)c2c(c1)OC(C)(C)[C@@H]1CCC(C)=C[C@@H]21 [dronabinol]
true response (weight gain of >=10% from baseline weight) (patients [1]): 3% | patients with decreased nausea (cancer patients; cancer patients, placebo 7%): 20% | patients with increased appetite (cancer patients; cancer patients, placebo 8%): 38% | patients who gained >=2 kg (cancer patients; placebo 10.5%, did not reach significance): 22% | taste and smell perception, appetite and caloric intake (advanced cancer patients): improvement | patients reporting appetite improvement [2]: 49%

CCCCCc1cc(O)c2c(c1)OC(C)(C)[C@@H]1CCC(C)=C[C@@H]21 [THC, Tetrahydrocannabinol]
differences between the groups in improvement in appetite or weight-gain (patients [3]): No significant differences | start of psychotropic effects (inhaled): within seconds to a few minutes | time to maximum psychotropic effects (inhaled): 15 to 30 min | time until psychotropic effects taper off (inhaled): 2 to 3 h | delay until psychotropic effects set in (oral ingestion): 30 to 90 min | time to maximum psychotropic effects (oral ingestion): 120 to 180 min | duration of psychotropic effects (oral ingestion, depending on dose and specific effect): 4 to 12 h

O=c1cc(-c2ccc(O)c(O)c2)oc2cc(O)cc(O)c12 [Luteolin]
production of TNFa, IL-lb, and IL-6 [4]: suppress

CCN1CCCC1CNC(=O)c1cc(S(=O)(=O)CC)c(N)cc1OC (centres unmarked) [amisulpride]
psychotic symptoms (Brief Psychiatric Rating Scale, Positive and Negative Syndrome Scale) [5]: significant decrease of psychotic symptoms

COc1cc(-c2cc(=O)c3c(O)c(C/C=C(\C)CCC=C(C)C)c(O)cc3o2)ccc1O [Cannaflavin A]
potency as inhibitor of prostaglandin E2 relative to aspirin (prostaglandin E2): 30 ×

C=C1CC/C=C(\C)CC[C@@H]2[C@@H]1CC2(C)C [Beta caryophyllene, Beta-caryophyllene]
binding to CB2 (CB2): binds | TNF alpha and IL-lb expression (human peripheral blood): inhibits

C=C(C)[C@@H]1CCC(C)=C[C@H]1c1c(O)cc(CCCCC)cc1O [CBD, Cannabidiol]
affinity for CB2 receptor (CB2): very low affinity | side effects (extrapyramidal symptoms, increase in prolactin, weight gain) compared to amisulpride ([5]; 4 week trial): significantly fewer side effects | psychotic symptoms (Brief Psychiatric Rating Scale, Positive and Negative Syndrome Scale) [5]: significant decrease of psychotic symptoms | release of TNF-alpha [6]: suppressed | positive and cognitive symptoms (schizophrenic patients; add-on to anti-psychotic, 88 patients): improved positive and cognitive symptoms | adverse effects (schizophrenic patients): no severe adverse effects

CC(=O)O[C@]1(C(C)=O)CC[C@H]2[C@@H]3C=C(C)C4=CC(=O)CC[C@]4(C)[C@H]3CC[C@@]21C [megestrol acetate]
true response (weight gain of >=10% from baseline weight) (patients [1]): 11% | patients reporting appetite improvement [2]: 75%
